Data: US8481731B2, “Compounds, pharmaceutical composition and methods relating thereto” (Boehringer Ingelheim International GmbH, priority 2009, dated 2013)
pEC50: −log10 of the molar value. Marks after values point to notes of the source that are not given here.

Target: T1, human GPR119 receptor (Homo sapiens, UniProt Q8TDV5, S329A/T327A)
T1 construct: N-terminal leader […]; expressed in transfected cells
T1 sequence (Q8TDV5 with tags, fused parts or gaps T327A/S329A): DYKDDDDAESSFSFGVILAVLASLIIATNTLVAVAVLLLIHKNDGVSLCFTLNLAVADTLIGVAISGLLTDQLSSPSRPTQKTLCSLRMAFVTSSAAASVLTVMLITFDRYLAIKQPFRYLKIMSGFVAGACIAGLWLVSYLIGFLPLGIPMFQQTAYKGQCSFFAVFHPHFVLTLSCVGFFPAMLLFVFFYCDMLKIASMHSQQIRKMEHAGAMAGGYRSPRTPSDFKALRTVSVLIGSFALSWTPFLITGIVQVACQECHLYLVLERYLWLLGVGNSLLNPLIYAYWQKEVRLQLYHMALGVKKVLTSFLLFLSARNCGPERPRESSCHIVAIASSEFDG
Assay: cAMP assay (LANCE cAMP-384 Kit), cAMP accumulation in HEK293 cells stably expressing mutant human GPR119 receptor
Format: cell-based
Settings: for pEC50: cAMP accumulation, HEK293 cells stably expressing a mutant form of the human GPR119 receptor, 20 min at 37° C.; for % stimulation at 10 μM: single concentration 10 μM, given where no EC50 value could be determined, HEK293 cells expressing mutant human GPR119
Experimental: Quantitative detection of cAMP accumulation from cells expressing human GPR119 receptor was achieved using Perkin Elmer's LANCE cAMP-384 Kit (Cat#AD0264) according to the manufacturer's protocol. Briefly, HEK293 cells stably expressing a mutant form of the human GPR119 receptor (Methionine 1 replaced with the amino acid sequence […], and T327 & S329 changed to alanines) were grown to 50-70% confluency in cell culture media (DMEM, 10% heat inactivated Fetal Bovine Serum, 50 I.U./mL penicillin, 50 μg/mL streptomycin, 10 mM HEPES, 20 μg/mL G418 Sulfate). On the day of the assay, GPR119 stable HEK293 cells were lifted from the tissue culture plate and 1000 cells/well were incubated along with various concentrations of test compounds for 20 min at 37° C. Detection Buffer (50 mM HEPES, 10 mM calcium chloride, 0.35% Triton X-100, 1 mg/mL BSA) containing cAMP-specific antibody was then added to all wells and allowed to equilibrate in the dark for 10 minutes at room temperature. Upon equilibration, Detection Buffer containing europium-labeled cAMP tracer complex was added to all wells and allowed to react for 1 hour at room temperature. After 1 hour, bound europium-labeled cAMP tracer was measured using a Perkin Elmer ViewLux. The quantity of cAMP generated in each well was derived from a standard curve.
For some compounds for which no EC50 value could be determined, the efficacy is provided at a single concentration (10 μM) yielding % stimulation values.

| SMILES | pEC50 | % stimulation at 10 μM |
| --- | --- | --- |
| CC(C)OC(=O)N1CCC(Oc2cc(N3CCc4cc(S(C)(=O)=O)ccc43)ncn2)CC1 [Compound 4-1, 4-[6-(5-Methanesulfonyl-2,3-dihydro-indol-1-yl)-pyrimidin-4-yloxy]-piperidine-1-carboxylic acid isopropyl ester] | 7.48 | – |
| CS(=O)(=O)c1ccc2c(c1)CCN2c1cc(OC2CCN(C(=O)OC3CCC3)CC2)ncn1 [Compound 5-1, 4-[6-(5-Methanesulfonyl-2,3-dihydro-indol-1-yl)-pyrimidin-4-yloxy]-piperidine-1-carboxylic acid cyclobutyl ester] | 7.62 | – |
| CS(=O)(=O)c1ccc2c(c1)CCN2c1cc(OC2CCN(C(=O)OC3CCN(Cc4ccc(F)cc4)C3)CC2)ncn1 (stereo not shown) [Compound 21-3] | 6.47 | – |
| CC(C)OC(=O)N1CCC(Oc2ccnc(N3CCc4cc(S(C)(=O)=O)ccc43)c2)CC1 [Compound 10-1, 4-[2-(5-Methanesulfonyl-2,3-dihydro-indol-1-yl)-pyridin-4-yloxy]-piperidine-1-carboxylic acid isopropyl ester] | 6.23 | – |
| CCC(C)N(c1cc(N2CCc3cc(S(C)(=O)=O)ccc32)ncn1)C1CCN(C(=O)OC(C)(C)C)CC1 (stereo not shown) [Compound 16-4] | 7.02 | – |
| CC(C)(C)OC(=O)N1CCC(Oc2ncnc(N3CCc4cc(S(C)(=O)=O)ccc43)c2F)CC1 [Compound 13-1, 4-[5-Fluoro-6-(5-methanesulfonyl-2,3-dihydro-indol-1-yl)-pyrimidin-4-yloxy]-piperidine-1-carboxylic acid tert-butyl ester] | 6.42 | – |
| CC(C)(C)OC(=O)N1CC(Oc2cc(N3CCc4cc(S(C)(=O)=O)ccc43)ncn2)C1 [Compound 15-1, 3-[6-(5-Methanesulfonyl-2,3-dihydro-indol-1-yl)-pyrimidin-4-yloxy]-azetidine-1-carboxylic acid tert-butyl ester] | – | 22% |
| COc1c(OC2CCN(C(=O)OC(C)C)CC2)ncnc1N1CCc2cc(S(C)(=O)=O)ccc21 [Compound 8-1, 4-[6-(5-Methanesulfonyl-2,3-dihydro-indol-1-yl)-5-methoxy-pyrimidin-4-yloxy]-piperidine-1-carboxylic acid isopropyl ester] | 6.70 | – |
| CS(=O)(=O)c1ccc2c(c1)CCN2c1cc(OC2CCN(C(=O)OC3CCN(Cc4cccc(F)c4)C3)CC2)ncn1 (stereo not shown) [Compound 21-2] | 6.56 | – |
| CC(C)COC(=O)N1CCC(Oc2cc(N3CCc4cc(S(C)(=O)=O)ccc43)ncn2)CC1 [Compound 4-2] | 7.38 | – |
| C=CCN(c1cc(N2CCc3cc(S(C)(=O)=O)ccc32)ncn1)C1CCN(C(=O)OC(C)(C)C)CC1 [Compound 16-5] | 7.64 | – |
| CCN(c1cc(N2CCc3cc(S(C)(=O)=O)ccc32)ncn1)C1CCN(C(=O)OC(C)(C)C)CC1 [Compound 16-2] | 7.54 | – |
| CS(=O)(=O)c1ccc2c(c1)CCN2c1cc(OC2CCN(C(=O)OC3CCN(Cc4cc(F)cc(F)c4)C3)CC2)ncn1 (stereo not shown) [Compound 21-5] | 6.51 | – |
| CC(C)(C)OC(=O)N1CCC(Oc2cc(N3CCc4nc(Cl)ccc43)ncn2)CC1 [Compound 20-1, 4-[6-(5-Chloro-2,3-dihydro-pyrrolo[3,2-b]pyridin-1-yl)-pyrimidin-4-yloxy]-piperidine-1-carboxylic acid tert-butyl ester] | 6.12 | – |
| CC(C)OC(=O)N1CCC(N(C)c2cc(N3CCc4cc(S(C)(=O)=O)ccc43)ncn2)CC1 [Compound 7-1, 4-[6-(5-Methanesulfonyl-2,3-dihydro-indol-1-yl)-pyrimidin-4-yl-methylamino]-piperidine-1-carboxylic acid isopropyl ester] | 7.16 | – |
| CS(=O)(=O)c1ccc2c(c1)CCN2c1cc(OC2CCN(C(=O)OC(CF)CF)CC2)ncn1 [Compound 5-5] | 6.62 | – |
| CS(=O)(=O)c1ccc2c(c1)CCN2c1cc(OC2CCN(C(=O)OC3CCN(Cc4c(F)cccc4F)C3)CC2)ncn1 (stereo not shown) [Compound 21-6] | – | 84%* |
| CCC(C)OC(=O)N1CCC(Oc2cc(N3CCc4cc(S(C)(=O)=O)ccc43)ncn2)CC1 (stereo not shown) [Compound 5-3] | 7.46 | – |
| CC(C)(C)OC(=O)N1CC[C@@H](Oc2cc(N3CCc4cc(S(C)(=O)=O)ccc43)ncn2)C1 [Compound 15-2, (R)-3-[6-(5-Methanesulfonyl-2,3-dihydro-indol-1-yl)-pyrimidin-4-yloxy]-pyrrolidine-1-carboxylic acid tert-butyl ester] | – | 26% |
| CS(=O)(=O)c1ccc2c(c1)CCN2c1cc(OC2CCN(C(=O)OC3CCN(Cc4ccccc4F)C3)CC2)ncn1 (stereo not shown) [Compound 21-1, 4-[6-(5-Methanesulfonyl-2,3-dihydro-indol-1-yl)-pyrimidin-4-yloxy]-piperidine-1-carboxylic acid 1-(2-fluoro-benzyl)-pyrrolidin-3-yl ester] | – | 78%* |
| CC(C)OC(=O)N1CCC(Nc2cc(N3CCc4cc(S(C)(=O)=O)ccc43)ncn2)CC1 [Compound 6-1, 4-[6-(5-Methanesulfonyl-2,3-dihydro-indol-1-yl)-pyrimidin-4-ylamino]-piperidine-1-carboxylic acid isopropyl ester] | 6.21 | – |
| CS(=O)(=O)c1ccc2c(c1)CCN2c1cc(OC2CCN(C(=O)OCC3CC3)CC2)ncn1 [Compound 5-2] | 7.64 | – |
| COCC(C)OC(=O)N1CCC(Oc2cc(N3CCc4cc(S(C)(=O)=O)ccc43)ncn2)CC1 (stereo not shown) [Compound 5-4] | 7.00 | – |
| Cc1c(OC2CCN(C(=O)OC(C)C)CC2)ncnc1N1CCc2ncccc21 [Compound 9-2, 4-[6-(2,3-Dihydro-pyrrolo[3,2-b]pyridin-1-yl)-5-methyl-pyrimidin-4-yloxy]-piperidine-1-carboxylic acid isopropyl ester] | 6.51 | – |
| CN(c1cc(N2CCc3cc(S(C)(=O)=O)ccc32)ncn1)C1CCN(C(=O)OC(C)(C)C)CC1 [Compound 16-1, 4-{[6-(5-Methanesulfonyl-2,3-dihydro-indol-1-yl)-pyrimidin-4-yl]-methyl-amino}-piperidine-1-carboxylic acid tert-butyl ester] | 7.29 | – |
| COCN(c1cc(N2CCc3cc(S(C)(=O)=O)ccc32)ncn1)C1CCN(C(=O)OC(C)(C)C)CC1 [Compound 16-3] | 6.04 | – |
| CS(=O)(=O)c1ccc2c(c1)CCN2c1cc(OC2CCN(C(=O)OC3CCN(Cc4cccc(F)c4F)C3)CC2)ncn1 (stereo not shown) [Compound 21-4] | 6.46 | – |
| CC(C)OC(=O)N1CCC(Oc2cc(N3CCc4cc(S(C)(=O)=O)ccc43)ncc2C#N)CC1 [Compound 24-1, 4-[5-Cyano-2-(5-methanesulfonyl-2,3-dihydro-indol-1-yl)-pyridin-4-yloxy]-piperidine-1-carboxylic acid isopropyl ester] | – | 54% |
